The text below walks through data of patent EP0801949A1, “Hypoglycemic quinone derivative” (Eisai Co., Ltd., priority 1996, dated 1997).

What all share (format): in vivo
The test system of data set [1] is KK-Ay/Ta mice. The data set is described as follows: Hemoglobin AIc (HbAIc) in type-II diabetes model mice, oral dosing twice daily for 14 days. The note with it: 300 mg/Kg/day p.o. for 14 days, KK-Ay/Ta mice (Table 3). The source says:
(§1) Use was made of 22-week old male KK-Ay/Ta mice (type-II diabetes model mice available from Clea Japan Inc.). Restricted feeding was effected such that the animals were starved from 9:00 a.m. to 5:00 p.m. daily through the experimental period.
(§2) (E)-3-[2-(5,6-Dimethoxy-3-methyl-1,4-benzoquinonyl)]-2-nonylpropenoic acid as a representative example of the compounds of the present invention was suspended in 0.5% methylcellulose (MC) and orally administered twice 9:00 a.m. and 5:00 p.m. daily for 14 days in accordance with the following schedule.
(§3) The 0.5% methylcellulose (MC) was administered to a control group in the same manner as above.
All blood specimens were collected from the cardal veins, and blood sugar and blood insulin levels were measured on the day preceding the administration (day 0) and 3 days (day 3), 7 days (day 7), 10 days (day 10) and 14 days (day 14) after the administration. Hemoglobin AIc (HbAIc) was measured on day 0 and day 14. The measurements of blood sugar level, blood insulin level and HbAIc were conducted by the use of Fuji Dry-Chem System 5500 (manufactured by Fuji Medical Systems Co., Ltd.), insulin measuring kit (EIA sandwich method, manufactured by Morinaga Seikagaku Kenkyusho) and DCA 2000 System (manufactured by Bayer Diagnosics), respectively. The results are expressed by the average ± standard error with respect to each group. […]

The next data set relates to beagle. Put plainly: Single administration toxicity test in beagle (lethal dose). As to conditions: p.o., observed for 21 days. From the text:
(§4) (E)-3-[2-(5,6-Dimethoxy-3-methyl-1,4-benzoquinonyl)]-2-nonylpropenoic acid was used as a test compound.

Data set [2] deals with KK-Ay/Ta mice. Put plainly: Blood sugar level in type-II diabetes model mice, oral dosing twice daily for 14 days. The note with it: for Blood sugar level: male KK-Ay/Ta mice, average ± standard error, N=6.
Text: as §1, §2, §3
All blood specimens were collected from the cardal veins, and blood sugar and blood insulin levels were measured on the day preceding the administration (day 0) and 3 days (day 3), 7 days (day 7), 10 days (day 10) and 14 days (day 14) after the administration. Hemoglobin AIc (HbAIc) was measured on day 0 and day 14. The measurements of blood sugar level, blood insulin level and HbAIc were conducted by the use of Fuji Dry-Chem System 5500 (manufactured by Fuji Medical Systems Co., Ltd.), insulin measuring kit (EIA sandwich method, manufactured by Morinaga Seikagaku Kenkyusho) and DCA 2000 System (manufactured by Bayer Diagnosics), respectively. The results are expressed by the average ± standard error with respect to each group. The significant difference test as compared with the control group was performed by the Student t-test.

The subject of another data set is SD rat. The data set is described as follows: Single administration toxicity test in rat (lethal dose). As to conditions: observed for 14 days.
Text: as §4

As to `CCCCCCCCC/C(=C\C1=C(C)C(=O)C(OC)=C(OC)C1=O)C(=O)O` [invention compd., (E)-3-[2-(5,6-Dimethoxy-3-methyl-1,4-benzoquinonyl)]-2-nonylpropenoic acid], in the data set on KK-Ay/Ta mice [1], the “HbAIc change as compared with the control group (in words)” value is reported as “decrease trend”. The Lethal dose with beagle is above 400 mg/kg; with SD rat (i.v.), above 60 mg/kg; in the data set with SD rat (p.o.), 2000 mg/kg. Besides, the “hypoglycemic effect (in words)” value in the data set on KK-Ay/Ta mice [2] (300 mg/Kg/day p.o. for 14 days, KK-Ay/Ta mice, compared with the control group (Table 2, Fig. 1)) is listed as “excellent hypoglycemic effect”. Moreover, the Blood sugar level came out at 465.7 ± 21.51 mg/dL with KK-Ay/Ta mice [2] (Day 0 (day preceding the administration, baseline)); 465.7 ± 21.51 mg/dL in the data set on KK-Ay/Ta mice [2] (Day 0 (day preceding the administration, baseline), listed as the compound of the present invention); 380.8 ± 52.42 mg/dL in the data set with KK-Ay/Ta mice [2] (Day 3, 300 mg/Kg/day p.o. (100 a.m. + 200 p.m.), 300 mg/kg/day); 380.8 ± 52.42 mg/dL in the data set with KK-Ay/Ta mice [2] (Day 3, 300 mg/Kg/day p.o. (100 a.m. + 200 p.m.), listed as the compound of the present invention, 300 mg/kg/day); 319.8 ± 27.49 mg/dL with KK-Ay/Ta mice [2] (Day 7, 300 mg/Kg/day p.o. (100 a.m. + 200 p.m.), 300 mg/kg/day); 319.8 ± 27.49 mg/dL in the data set with KK-Ay/Ta mice [2] (Day 7, 300 mg/Kg/day p.o. (100 a.m. + 200 p.m.), listed as the compound of the present invention, 300 mg/kg/day). Further, the Blood sugar level worked out at 334.3 ± 33.75 mg/dL in the data set on KK-Ay/Ta mice [2] (Day 10, 300 mg/Kg/day p.o. (100 a.m. + 200 p.m.), 300 mg/kg/day); 334.3 ± 33.75 mg/dL with KK-Ay/Ta mice [2] (Day 10, 300 mg/Kg/day p.o. (100 a.m. + 200 p.m.), listed as the compound of the present invention, 300 mg/kg/day); 280.2 ± 37.31 mg/dL in the data set on KK-Ay/Ta mice [2] (Day 14, 300 mg/Kg/day p.o. (100 a.m. + 200 p.m.), 300 mg/kg/day); 280.2 ± 37.31 mg/dL in the data set on KK-Ay/Ta mice [2] (Day 14, 300 mg/Kg/day p.o. (100 a.m. + 200 p.m.), listed as the compound of the present invention, 300 mg/kg/day).
